{
  "source": "patent US20220169654A1",
  "about": "“New Organic Compounds” (Servier Pharmaceuticals LLC, priority 2020, published 2022)",
  "data": [
    {"target": "T1, MAT2A homodimer (Homo sapiens, UniProt P31153)", "T1 construct": "inferred from Ni sepharose purification with imidazole elution; made in house; host or cells: Sf9 insect cells, baculovirus (Bac to Bac, pFASTBAC1)", "T1 sequence (P31153 whole entry)": "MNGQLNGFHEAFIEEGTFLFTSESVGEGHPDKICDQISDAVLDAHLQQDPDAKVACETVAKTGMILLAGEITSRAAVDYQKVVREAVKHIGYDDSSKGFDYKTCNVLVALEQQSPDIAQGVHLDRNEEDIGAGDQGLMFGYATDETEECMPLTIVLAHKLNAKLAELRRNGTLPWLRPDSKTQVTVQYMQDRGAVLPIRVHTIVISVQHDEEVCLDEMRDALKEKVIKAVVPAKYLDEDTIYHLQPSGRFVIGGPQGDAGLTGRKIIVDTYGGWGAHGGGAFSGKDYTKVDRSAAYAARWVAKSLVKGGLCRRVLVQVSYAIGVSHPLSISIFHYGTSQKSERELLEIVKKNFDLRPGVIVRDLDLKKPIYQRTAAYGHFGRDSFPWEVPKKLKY", "test": "MAT2A inhibition (biochemical, liberated phosphate, PiColorLock Gold)", "settings": "recombinant MAT2A homodimer; IC50 bin with Max Inh.; read-out: Enzyme Inhibition Bin", "description": "Mat2A protein was expressed by recombinant baculovirus in SF9 infected cells using the Bac to Bac system cloned into the pFASTBAC1 vector (Invitrogen, Carlsbad, Calif.). Recombinant MAT2A was isolated from the cell lysate of 150 g of infected cells using HP Ni sepharose column chromatography. Recombinant MAT2A homodimer was eluted with 250 and 500 mM imidazole, and fractions containing MAT2A were identified by sodium dodecyl sulfate polyacrylamide gel electrophoresis and pooled.\nFor determination of the inhibitory potency of compounds against the MAT2A homodimer, protein was diluted to 4 μg/mL in assay buffer (50 mM Tris, pH 8.0, 50 mM KCl, 15 mM MgCl2, 0.3 mM EDTA, 0.005% [w/v] bovine serum albumin [BSA]). Test compound was prepared in 100% dimethyl sulfoxide (DMSO) at 50× the desired final concentration. A 1 μL volume of compound dilution was added to 40 μL of enzyme dilution and the mixture was allowed to equilibrate for 60 minutes at 25° C. The enzymatic assay was initiated by the addition of 10 μL of substrate mix (500 μM ATP, pH 7.0, 400 μM L-methionine in 1× assay buffer), and the mixture was incubated for a further 60 minutes at 25° C. The reaction was halted and the liberated phosphate released by the enzyme in stoichiometric amounts by the production of S-adenosyl methionine (SAM) was measured using the PiColorLock Gold kit (Innova Biosciences, UK). Absolute product amounts were determined by comparison to a standard curve of potassium phosphate buffer, pH 8.0. The compounds were also tested in a secondary assay utilizing 1 μg/mL MAT2A and incubated for 5 hours at 25° C. before halting and processing as above.\nSpecific compounds disclosed herein were tested in the foregoing assay and they were determined to inhibit MAT2A with an IC50. See, Table 1 below.", "units": {"IC50": "µM"}, "values": [
      {"smiles": "Cn1cc2cc(-n3nc4ccn(CC5CC5)c4c(-c4cncc(Cl)c4)c3=O)ccc2n1", "note": "[Example 126, 4-(5-chloropyridin-3-yl)-5-(cyclopropylmethyl)-2-(2-methyl-2H-indazol-5-yl)-2,5-dihydro-3H-pyrrolo[3,2-c]pyridazin-3-one]", "IC50": "< 1"},
      {"smiles": "Cn1cc2cc(-n3nc4c(S(C)(=O)=O)cn(CC5CC5)c4c(-c4ccc(C5CC5)nc4)c3=O)ccc2n1", "note": "[Example 261, 5-(cyclopropylmethyl)-4-(6-cyclopropylpyridin-3-yl)-2-(2-methyl-2H-indazol-5-yl)-7-(methylsulfonyl)-2,5-dihydro-3H-pyrrolo[3,2-c]pyridazin-3-one]", "IC50": "< 1"},
      {"smiles": "Cn1cc2cc(-n3nc4ccn(CC5CC5)c4c(-c4cncc(C(F)(F)F)c4)c3=O)ccc2n1", "note": "[Example 125, 5-(cyclopropylmethyl)-2-(2-methyl-2H-indazol-5-yl)-4-(5-(trifluoromethyl)pyridin-3-yl)-2,5-dihydro-3H-pyrrolo[3,2-c]pyridazin-3-one]", "IC50": "> 10"},
      {"smiles": "Cn1cc2cc(-n3nc4c(S(C)(=O)=O)cn(CC5CC5)c4c(-c4ccc(C5CC5)cc4)c3=O)ccc2n1", "note": "[Example 262, 5-(cyclopropylmethyl)-4-(4-cyclopropylphenyl)-2-(2-methyl-2H-indazol-5-yl)-7-(methylsulfonyl)-2,5-dihydro-3H-pyrrolo[3,2-c]pyridazin-3-one]", "IC50": "< 1"},
      {"smiles": "CNS(=O)(=O)c1cn(CC2CC2)c2c(-c3ccc(C4CC4)cc3)c(=O)n(-c3ccc4nn(C)cc4c3)nc12", "note": "[Example 179, 5-(cyclopropylmethyl)-4-(4-cyclopropylphenyl)-N-methyl-2-(2-methyl-2H-indazol-5-yl)-3-oxo-3,5-dihydro-2H-pyrrolo[3,2-c]pyridazine-7-sulfonamide]", "IC50": "> 10"},
      {"smiles": "Cc1ccc(-c2c(=O)n(-c3ccc4nn(C)cc4c3)nc3c(C#N)c(C)n(CC4CC4)c23)cn1", "note": "[Example 266, 5-(cyclopropylmethyl)-6-methyl-2-(2-methyl-2H-indazol-5-yl)-4-(6-methylpyridin-3-yl)-3-oxo-2H,3H,5H-pyrrolopyridazine-7-carbonitrile]", "IC50": "> 10"},
      {"smiles": "Cc1c(C#N)c2nn(-c3ccc4nn(C)cc4c3)c(=O)c(-c3ccc(C4CC4)nc3)c2n1CC1CC1", "note": "[Example 265, 5-(cyclopropylmethyl)-4-(6-cyclopropylpyridin-3-yl)-6-methyl-2-(2-methyl-2H-indazol-5-yl)-3-oxo-2H,3H,5H-pyrrolopyridazine-7-carbonitrile]", "IC50": "> 10"},
      {"smiles": "CN(C)C(=O)c1cn(CC2CC2)c2c(-c3ccc(C4CC4)nc3)c(=O)n(-c3ccc4nn(C)cc4c3)nc12", "note": "[Example 164, 5-(cyclopropylmethyl)-4-(6-cyclopropylpyridin-3-yl)-N,N-dimethyl-2-(2-methyl-2H-indazol-5-yl)-3-oxo-3,5-dihydro-2H-pyrrolo[3,2-c]pyridazine-7-carboxamide]", "IC50": "< 1"},
      {"smiles": "CN1CC=C(n2nc3ccn(CC4CC4)c3c(-c3ccc(C4CC4)nc3)c2=O)CC1", "note": "[Example 232, 5-(cyclopropylmethyl)-4-(6-cyclopropylpyridin-3-yl)-2-(1-methyl-1,2,3,6-tetrahydropyridin-4-yl)-2,5-dihydro-3H-pyrrolo[3,2-c]pyridazin-3-one]", "IC50": "> 10"},
      {"smiles": "CC(C)Cn1cc(C#N)c2nn(-c3ccc4nn(C)cc4c3)c(=O)c(-c3ccc(C4CC4)nc3)c21", "note": "[Example 121, 4-(6-cyclopropylpyridin-3-yl)-5-isobutyl-2-(2-methyl-2H-indazol-5-yl)-3-oxo-3,5-dihydro-2H-pyrrolo[3,2-c]pyridazine-7-carbonitrile]", "IC50": "< 1"},
      {"smiles": "CC(C)n1cc(C#N)c2nn(-c3ccc4nn(C)cc4c3)c(=O)c(-c3ccc(C4CC4)nc3)c21", "note": "[Example 146, 4-(6-cyclopropylpyridin-3-yl)-5-isopropyl-2-(2-methyl-2H-indazol-5-yl)-3-oxo-3,5-dihydro-2H-pyrrolo[3,2-c]pyridazine-7-carbonitrile]", "IC50": "< 1"},
      {"smiles": "CNS(=O)(=O)c1cn(CC2CC2)c2c(-c3ccc(C)nc3)c(=O)n(-c3ccc4nn(C)cc4c3)nc12", "note": "[Example 182, 5-(cyclopropylmethyl)-N-methyl-2-(2-methyl-2H-indazol-5-yl)-4-(6-methylpyridin-3-yl)-3-oxo-3,5-dihydro-2H-pyrrolo[3,2-c]pyridazine-7-sulfonamide]", "IC50": "> 10"},
      {"smiles": "CNS(=O)(=O)c1cn(CC2CC2)c2c(-c3ccc(OC(F)F)cc3)c(=O)n(-c3ccc4nn(C)cc4c3)nc12", "note": "[Example 183, 5-(cyclopropylmethyl)-4-(4-(difluoromethoxy)phenyl)-N-methyl-2-(2-methyl-2H-indazol-5-yl)-3-oxo-3,5-dihydro-2H-pyrrolo[3,2-c]pyridazine-7-sulfonamide]", "IC50": "> 10"},
      {"smiles": "CNS(=O)(=O)c1cn(CC2CC2)c2c(-c3ccc(C4CC4)nc3)c(=O)n(-c3ccc4nn(C)cc4c3)nc12", "note": "[Example 181, 5-(cyclopropylmethyl)-4-(6-cyclopropylpyridin-3-yl)-N-methyl-2-(2-methyl-2H-indazol-5-yl)-3-oxo-3,5-dihydro-2H-pyrrolo[3,2-c]pyridazine-7-sulfonamide]", "IC50": "> 10"},
      {"smiles": "Cn1cc2cc(-n3nc4c(c(CC5CC5)cn4C)c(-c4ccc(OC(F)F)cc4)c3=O)ccc2n1", "note": "[Example 272, 5-(cyclopropylmethyl)-4-(4-(difluoromethoxy)phenyl)-7-methyl-2-(2-methyl-2H-indazol-5-yl)-2,7-dihydro-3H-pyrrolo[2,3-c]pyridazin-3-one]", "IC50": "< 0.1"}
    ]}
  ]
}
